This experiment concerns the target Sphingosine 1-phosphate receptor 4 (Homo sapiens) (UniProt O95977). Briefly: S1P4 receptor agonists, human, late-stage follow-up, cell-based, fluorescence, synthesized compounds (AID 463107). As to conditions: S1P4 cell-based agonist assay.

The structures appear in SMILES notation.

Sphingosine 1-phosphate receptor 4 (Homo sapiens), sequence (O95977 whole entry, looked up): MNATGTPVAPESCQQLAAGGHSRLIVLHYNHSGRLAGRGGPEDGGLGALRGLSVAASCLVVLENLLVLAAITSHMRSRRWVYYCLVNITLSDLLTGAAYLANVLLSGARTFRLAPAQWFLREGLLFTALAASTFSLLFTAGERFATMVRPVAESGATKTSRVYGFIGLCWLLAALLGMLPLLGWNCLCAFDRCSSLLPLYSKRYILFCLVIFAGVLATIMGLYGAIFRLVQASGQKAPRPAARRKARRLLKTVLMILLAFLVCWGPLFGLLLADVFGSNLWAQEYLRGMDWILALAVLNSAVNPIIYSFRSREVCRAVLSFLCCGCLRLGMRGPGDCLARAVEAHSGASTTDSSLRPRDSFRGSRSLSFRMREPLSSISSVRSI

By EC50 is commonly meant the midpoint of the concentration-response curve. `Cc1ccc(OCCOc2ccc(Cl)cc2Cl)c(Br)n1`: the 50% effective concentration (EC50) was 52 nM.

On to `Cc1ccc(OCCOc2ccc(Cl)cc2Cl)c([N+](=O)[O-])n1`, for which the EC50 was 162 nM. As for `Clc1ccc(OCCOc2ccc(Br)nc2Br)c(Cl)c1`, the EC50 is 46.3 nM.

In the case of `FCc1ccc(OCCOc2ccc(Cl)cc2Cl)c(Cl)n1`, the EC50 was 45.5 nM. As for `COc1ccc(OCCOc2ccc(C)nc2[N+](=O)[O-])c(Cl)c1`, the figure is 3900 nM; as for `Cc1ccc(OCCOc2ccc(C)nc2[N+](=O)[O-])c(C)c1`, 7200 nM; as for `Cc1ccc(OCCOc2c(Cl)cc(Cl)cc2Cl)c([N+](=O)[O-])n1`, 570 nM.
